{"source": "paper PMC11358092", "about": "“Caspofungin enhances the potency of rifampin against Gram-negative bacteria” (Frontiers in Microbiology, 2024)", "note": "Counter-ions that a name gives are not always drawn."}
{"system": "E. coli MG1655", "experiment": "High-throughput screening of FDA-approved drug library for antibiotic adjuvants (growth inhibition, OD600)", "type": "cell-based, Escherichia coli", "conditions": "library drug alone, LB medium, 96-well, 8 h static culture at 37°C, relative to PMBN (positive) and DMSO (negative) controls, %, table head prints no unit", "description": "To screen for antibiotic adjuvants against GNB, […] library drugs or polymyxin B nonapeptide (PMBN, positive control) or dimethyl sulfoxide (DMSO, negative control). After 8 h of static culture at 37°C, the optical density at 600 nm (OD600) was measured using a microplate reader. Percentage inhibition was calculated as (ODN – ODX)/(ODN – ODP) × 100%, where ODX is the OD600 value for a test treated with drug X, and ODP and ODN are the OD600 values for the positive and negative control, respectively.", "units": {"Growth inhibition, Compound": "%"}}
{"smiles": "Oc1c(Cl)cc(Cl)c2cccnc12", "note": "[Capitrol]", "Growth inhibition, Compound": 118}
{"smiles": "Cc1ccc2c(Cl)cc(Cl)c(O)c2n1", "note": "[Chloquinan]", "Growth inhibition, Compound": 119}
{"smiles": "CN(C)[C@@H]1C(O)=C(C(N)=O)C(=O)[C@@]2(O)C(O)=C3C(=O)c4c(O)cccc4[C@@](C)(O)[C@H]3[C@H](O)[C@@H]12", "note": "[Oxytetracycline Hydrochloride]", "Growth inhibition, Compound": 106}
{"smiles": "CC(C)(C)C(=O)OCOC(=O)[C@@H]1N2C(=O)[C@@H](/N=C/N3CCCCCC3)[C@H]2SC1(C)C", "note": "[Pivmecillinam hydrochloride]", "Growth inhibition, Compound": 72}
{"smiles": "Cc1cn([C@H]2C=C[C@@H](CO)O2)c(=O)[nH]c1=O", "note": "[Stavudine]", "Growth inhibition, Compound": 27}
{"smiles": "C[C@H]1COc2c(N3CCN(C)CC3)c(F)cc3c(=O)c(C(=O)O)cn1c23", "note": "[Levofloxacin Hemihydrate]", "Growth inhibition, Compound": 114}
{"smiles": "CN(C)[C@@H]1C(O)=C(C(N)=O)C(=O)[C@@]2(O)C(O)=C3C(=O)c4c(O)cccc4[C@@](C)(O)C3[C@H](O)C12.Cl", "note": "(stereo partly shown) [Aquacycline]", "Growth inhibition, Compound": 110}
{"smiles": "[H]/N=C(\\N/C(=N/[H])NCCCCCCNC(=N)NC(=N)Nc1ccc(Cl)cc1)Nc1ccc(Cl)cc1", "note": "[Chlorhexidine hydrochloride]", "Growth inhibition, Compound": 107}
{"smiles": "CNc1ncc(-c2ccc3c(=O)c(C(=O)O)cn(C4CC4)c3c2C)cc1C", "note": "[Ozenoxacin]", "Growth inhibition, Compound": 106}
{"smiles": "CCO.C[C@H]1c2cccc(O)c2C(O)=C2C(=O)[C@]3(O)C(O)=C(C(N)=O)C(=O)[C@@H](N(C)C)[C@@H]3[C@@H](O)[C@@H]21.C[C@H]1c2cccc(O)c2C(O)=C2C(=O)[C@]3(O)C(O)=C(C(N)=O)C(=O)[C@@H](N(C)C)[C@@H]3[C@@H](O)[C@@H]21.Cl.Cl.O", "note": "[Doxycycline hyclate]", "Growth inhibition, Compound": 112}
{"smiles": "Nc1nc(/C(=N/O)C(=O)N[C@@H]2C(=O)N3C(C(=O)O)=C(/C=C4\\CCN([C@@H]5CCNC5)C4=O)CS[C@H]23)ns1", "note": "[Ceftobiprole]", "Growth inhibition, Compound": 107}
{"smiles": "NCC[C@H](O)C(=O)N[C@@H]1C[C@H](N)[C@@H](O[C@H]2O[C@H](CN)[C@@H](O)[C@H](O)[C@H]2O)[C@H](O)[C@H]1O[C@H]1O[C@H](CO)[C@@H](O)[C@H](N)[C@H]1O.O=S(=O)(O)O.O=S(=O)(O)O", "note": "[Amikacin disulfate]", "Growth inhibition, Compound": 108}
{"smiles": "CC(=O)OCC1=C(C(=O)O)N2C(=O)[C@@H](NC(=O)Cc3cccs3)[C@H]2SC1", "note": "[Cephalotin acid]", "Growth inhibition, Compound": 92}
{"smiles": "Cc1nnc(SCC2=C(C(=O)O)N3C(=O)[C@@H](NC(=O)Cn4cnnn4)[C@H]3SC2)s1", "note": "[Cefazolin]", "Growth inhibition, Compound": 102}
{"smiles": "CC1(C)S[C@@H]2[C@H](NC(=O)Cc3ccccc3)C(=O)N2[C@H]1C(=O)O", "note": "[Benzylpenicillin potassium]", "Growth inhibition, Compound": 55}
{"smiles": "CO[C@H]1/C=C/O[C@@]2(C)Oc3c(C)c(O)c4c(O)c(c5c(nc6cc(C)ccn65)c4c3C2=O)NC(=O)/C(C)=C\\C=C\\[C@H](C)[C@H](O)[C@@H](C)[C@@H](O)[C@@H](C)[C@H](OC(C)=O)[C@@H]1C", "note": "[Rifaximin]", "Growth inhibition, Compound": 108}
{"smiles": "Cc1oc(=O)oc1COC(=O)N1CC[C@@H](N2CC/C(=C\\C3=C(C(=O)O)N4C(=O)[C@@H](NC(=O)/C(=N/O)c5nsc(N)n5)[C@H]4SC3)C2=O)C1", "note": "[Ceftobiprole medocaril]", "Growth inhibition, Compound": 106}
{"smiles": "Cc1oc(=O)oc1CN1CCN(c2cc3c(cc2F)c(=O)c(C(=O)O)c2n3C(C)S2)CC1", "note": "(stereo not shown) [Prulifloxacin]", "Growth inhibition, Compound": 100}
{"smiles": "CCn1cc(C(=O)O)c(=O)c2cc3c(cc21)OCO3", "note": "[Oxolinic acid]", "Growth inhibition, Compound": 108}
{"smiles": "CO/N=C(\\C(=O)N[C@@H]1C(=O)N2C(C(=O)O)=C(CSC(=O)c3ccco3)CS[C@H]12)c1csc(N)n1", "note": "[Sodium ceftiofur]", "Growth inhibition, Compound": 109}
{"smiles": "Cc1cc(O)c(C(=O)N[C@@H](C(=O)N[C@@H]2C(=O)N3C(C(=O)O)=C(CSc4nnnn4C)CS[C@H]23)c2ccc(O)cc2)cn1", "note": "[Cefpiramide acid]", "Growth inhibition, Compound": 97}
{"smiles": "CC1(C)S[C@@H]2[C@H](NC(=O)[C@H](C(=O)O)c3ccsc3)C(=O)N2[C@H]1C(=O)O", "note": "[Ticarcillin sodium]", "Growth inhibition, Compound": 86}
{"smiles": "CO[C@@]1(NC(=O)C(C(=O)O)c2ccc(O)cc2)C(=O)N2C(C(=O)O)=C(CSc3nnnn3C)CO[C@@H]21", "note": "(stereo partly shown) [Latamoxef sodium]", "Growth inhibition, Compound": 94}
{"smiles": "CN(C)c1ccc(O)c2c1C[C@H]1C[C@H]3[C@H](N(C)C)C(O)=C(C(N)=O)C(=O)[C@@]3(O)C(O)=C1C2=O", "note": "[Minocycline hydrochloride]", "Growth inhibition, Compound": 91}
{"smiles": "CO[C@H]1/C=C/O[C@@]2(C)Oc3c(C)c(O)c4c(c3C2=O)C2=NC3(CCN(CC(C)C)CC3)NC2=C(NC(=O)/C(C)=C\\C=C\\[C@H](C)[C@H](O)[C@@H](C)[C@@H](O)[C@@H](C)[C@H](OC(C)=O)[C@@H]1C)C4=O", "note": "[Rifabutin]", "Growth inhibition, Compound": 94}
{"smiles": "Nc1n[n+]([O-])c2ccccc2[n+]1[O-]", "note": "[Tirapazamine]", "Growth inhibition, Compound": 114}
{"smiles": "CCN1C(=O)C=CC1=O", "note": "[N-Ethylmaleimide]", "Growth inhibition, Compound": 106}
{"smiles": "Cc1nnc(SCC2=C(C(=O)O)N3C(=O)[C@@H](NC(=O)Cn4cnnn4)[C@H]3SC2)s1", "note": "[Cefazolin sodium salt]", "Growth inhibition, Compound": 90}
{"smiles": "CO/N=C(\\C(=O)N[C@@H]1C(=O)N2C(C(=O)O)=C(CSc3nc(C)c(CC(=O)O)s3)CS[C@H]12)c1csc(N)n1", "note": "[Cefodizime Sodium]", "Growth inhibition, Compound": 88}
{"smiles": "CCn1cc(C(=O)[O-])c(=O)c2ccc(C)nc21.[Na+]", "note": "[Nalidixic acid sodium salt]", "Growth inhibition, Compound": 63}
{"smiles": "Cc1c(-c2ccccc2)oc2c(C(=O)OCCN3CCCCC3)cccc2c1=O", "note": "[Flavoxate hydrochloride]", "Growth inhibition, Compound": 95}
{"smiles": "CN(C)[C@@H]1C(O)=C(C(N)=O)C(=O)[C@@]2(O)C(O)=C3C(=O)c4c(O)cccc4[C@@](C)(O)[C@H]3[C@H](O)[C@@H]12", "note": "[Oxytetracycline]", "Growth inhibition, Compound": 66}
{"smiles": "C/C(=C\\C(=O)OCCCCCCCCC(=O)[O-])C[C@@H]1OC[C@H](C[C@@H]2O[C@H]2[C@@H](C)[C@H](C)O)[C@@H](O)[C@H]1O.C/C(=C\\C(=O)OCCCCCCCCC(=O)[O-])C[C@@H]1OC[C@H](C[C@@H]2O[C@H]2[C@@H](C)[C@H](C)O)[C@@H](O)[C@H]1O.O.O.[Ca+2]", "note": "[Mupirocin calcium]", "Growth inhibition, Compound": 96}
{"smiles": "CCn1cc(C(=O)O)c(=O)c2cnc(N3CCNCC3)nc21", "note": "[Pipemidic acid]", "Growth inhibition, Compound": 105}
{"smiles": "C=C[C@]1(C)C[C@@H](OC(=O)CS[C@@H]2C[C@H]3CC[C@@H](C2)N3C)[C@]2(C)[C@H](C)CC[C@]3(CCC(=O)[C@H]32)[C@@H](C)[C@@H]1O", "note": "[Retapamulin]", "Growth inhibition, Compound": 97}
{"smiles": "CO/N=C(\\C(=O)N[C@@H]1C(=O)N2C(C(=O)O)=C(CSc3nc(=O)c(=O)[nH]n3C)CS[C@H]12)c1csc(N)n1", "note": "[Ceftriaxone sodium]", "Growth inhibition, Compound": 114}
{"smiles": "O=C(N/N=C/c1ccc([N+](=O)[O-])o1)c1ccc(O)cc1", "note": "[Nifuroxazide]", "Growth inhibition, Compound": 102}
{"smiles": "O=C(Nc1ccc([N+](=O)[O-])cc1Cl)c1cc(Cl)ccc1O", "note": "[Niclosamide]", "Growth inhibition, Compound": 45}
{"smiles": "S=C=NCc1ccccc1", "note": "[Benzyl isothiocyanate]", "Growth inhibition, Compound": 71}
{"smiles": "Nc1nc(/C(=C/CC(=O)O)C(=O)N[C@@H]2C(=O)N3C(C(=O)O)=CCS[C@H]23)cs1.O.O", "note": "[Ceftibuten dihydrate]", "Growth inhibition, Compound": 84}
{"smiles": "N[C@@H]1[C@H]2CN(c3nc4c(cc3F)c(=O)c(C(=O)O)cn4-c3ccc(F)cc3F)C[C@@H]12", "note": "[Trovafloxacin mesylate]", "Growth inhibition, Compound": 116}
{"smiles": "COc1c(N2C[C@@H]3CCCN[C@@H]3C2)c(F)cc2c(=O)c(C(=O)O)cn(C3CC3)c12", "note": "[Moxifloxacin]", "Growth inhibition, Compound": 101}
{"smiles": "O=C(Nc1ccc(Cl)cc1)c1cc(Br)ccc1O", "note": "[Salifungin]", "Growth inhibition, Compound": 67}
{"smiles": "CC1(C)S[C@@H]2[C@H](NC(=O)[C@H](C(=O)O)c3ccsc3)C(=O)N2[C@H]1C(=O)O", "note": "[Ticarcillin disodium]", "Growth inhibition, Compound": 86}
{"smiles": "C[C@@H](O)[C@H]1C(=O)N2C(C(=O)[O-])=C(SC3Cn4cnc[n+]4C3)[C@H](C)[C@H]12", "note": "(stereo partly shown) [Biapenem]", "Growth inhibition, Compound": 113}
{"smiles": "NC(=O)N/N=C/c1ccc([N+](=O)[O-])o1", "note": "[Furacilin]", "Growth inhibition, Compound": 76}
{"smiles": "Oc1ccc(Cl)cc1Cc1cc(Cl)ccc1O", "note": "[Dichlorophen]", "Growth inhibition, Compound": 95}
{"smiles": "CO/N=C(\\C(=O)N[C@@H]1C(=O)N2C(C(=O)O)=C(COC(C)=O)CS[C@H]12)c1csc(N)n1", "note": "[Cefotaxime]", "Growth inhibition, Compound": 113}
{"smiles": "C[C@H]1c2cccc(O)c2C(=O)C2=C(O)[C@]3(O)C(=O)C(C(N)=O)=C(O)[C@@H](N(C)C)[C@@H]3[C@@H](O)[C@@H]21", "note": "[Doxycycline]", "Growth inhibition, Compound": 118}
{"smiles": "CCO/N=C(\\C(=O)N[C@@H]1C(=O)N2C(C(=O)[O-])=C(Sc3nc(-c4cc[n+](C)cc4)cs3)CS[C@H]12)c1nsc(NP(=O)(O)O)n1", "note": "[Ceftaroline fosamil]", "Growth inhibition, Compound": 93}
{"smiles": "C[C@@H](O)[C@H]1C(=O)N2C(C(=O)[O-])=C([C@H]3CCCO3)S[C@H]12.[Na+]", "note": "[Faropenem sodium]", "Growth inhibition, Compound": 100}
{"smiles": "C[C@@H](O)[C@H]1C(=O)N2C(C(=O)O)=C(SC3CN(C4=NCCS4)C3)[C@H](C)[C@H]12", "note": "[Tebipenem]", "Growth inhibition, Compound": 109}
{"smiles": "CO/N=C(\\C(=O)N[C@@H]1C(=O)N2C(C(=O)OCOC(=O)C(C)(C)C)=C(Cn3nnc(C)n3)CS[C@H]12)c1csc(N)n1", "note": "[Cefteram pivoxil]", "Growth inhibition, Compound": 110}
{"smiles": "CC(C)(O/N=C(\\C(=O)N[C@@H]1C(=O)N2C(C(=O)[O-])=C(C[n+]3ccccc3)CS[C@H]12)c1csc(N)n1)C(=O)O", "note": "[Ceftazidime]", "Growth inhibition, Compound": 53}
{"smiles": "Cc1ccc(S(=O)(=O)O)cc1.NC1CCN(c2nc3c(cc2F)c(=O)c(C(=O)O)cn3-c2ccc(F)cc2F)C1.O", "note": "(stereo not shown) [Tosufloxacin p-Toluenesulfonate Hydrate]", "Growth inhibition, Compound": 99}
